Measurements reported in patent US20260109690A1, “HDAC6 INHIBITORS AND METHOD OF THEIR USE” (Baerenkraft Therapeutics, LLC., priority 2024, published 2026).

System: B6SJL.SOD1-G93A transgenic mouse model of amyotrophic lateral sclerosis
Test: ALS mouse model: beam walk test
Assay type: in vivo, mice
Description: Beam walk test was used for the assessment of motor coordination or balance of animals. The beam apparatus consisted of 1-meter beams with a flat surface of 6 mm width resting 50 cm above the tabletop on two poles. Animals were placed at one end of the beam, allowed to traverse the beam and reach another end with a cage filled with the home cage bedding. Animals were trained on beams for 2 consecutive days, 3 trials per day with 30 s inter-trial interval. On day 3 (day of test), animals were tested on the beam. A total 3 trials were performed, and time taken to traverse the beam & number of slips were recorded, average data was analyzed. For animals unable to traverse the beam, a cutoff time of 60 s was assigned.
Note: Number of slips were recorded until week 12 due to disease progression after that.
Note: Behavioral tests were performed once in two weeks, i.e. at week 10, 12, 14 and 16.

## CC1CN(Cc2ccc(Nc3nccc(-c4ccc(C(=O)NO)cc4)n3)cc2F)CCO1 (racemic) [Compound I-8, 4-(2-((3-fluoro-4-((2-methylmorpholino)methyl)phenyl)amino)pyrimidin-4-yl)-N-hydroxybenzamide]
G3 15 mg/kg p.o. QD, Week 10
  Beam Walk Test- Latency to traverse the beam: 21.37 ± 5.99 s
  Beam Walk Test: Number of Slips: 1.42 ± 0.14
G3 15 mg/kg p.o. QD, Week 12
  Beam Walk Test- Latency to traverse the beam: 25.96 ± 5.59 s
  Beam Walk Test: Number of Slips: 0.93 ± 0.19
G3 15 mg/kg p.o. QD, Week 14
  Beam Walk Test- Latency to traverse the beam: 20.52 ± 6.85 s
G3 15 mg/kg p.o. QD, Week 16
  Beam Walk Test- Latency to traverse the beam: 58.21 ± 1.79 s
G4 30 mg/kg (50 mg/kg from day 34) p.o. QD, Week 10
  Beam Walk Test- Latency to traverse the beam: 17.04 ± 5.71 s
G4 30 mg/kg (50 mg/kg from day 34) p.o. QD, Week 12
  Beam Walk Test- Latency to traverse the beam: 29.83 ± 6.82 s
G4 30 mg/kg (50 mg/kg from day 34) p.o. QD, Week 14
  Beam Walk Test- Latency to traverse the beam: 25.29 ± 7.64 s
G4 30 mg/kg (50 mg/kg from day 34) p.o. QD, Week 16, cutoff time 60 s
  Beam Walk Test- Latency to traverse the beam: 60 ± 0 s
G4 30 mg/kg p.o. QD, Week 10
  Beam Walk Test: Number of Slips: 1.33 ± 0.40
G4 30 mg/kg p.o. QD, Week 12
  Beam Walk Test: Number of Slips: 1.38 ± 0.34
G4, week 10
  latency to traverse the beam vs. G2: significant reduction in latency to traverse the beam
  motor balance compared to G2, disease control group: significant improvement was observed in motor balance
